Results taken from patent US20250194600A1, “MESOIONIC ARYLPYRIDAZINIUM DERIVATIVE OR SALT THEREOF AND INSECTICIDAL AGENT CONTAINING THE COMPOUND AND METHOD FOR USING SAME” (NIHON NOHYAKU CO., LTD., priority 2022, published 2025).

Experiments:
[1] = system: Small Brown Planthopper (Laodelphax striatellus); assay: Insecticidal test on small brown planthopper, dip treatment of rice plant seedlings; format: in vivo; settings: 192 h, rice seedlings dipped 30 seconds, 3rd-instar larvae, counted 8 days after inoculation, read-out: insecticidal efficacy (corrected mortality rate) against small brown planthopper
Text: (§1) • A: the mortality rate is 100%. • B: the mortality rate is 90 to 99%. • C: the mortality rate is 80 to 89%. • D: the mortality rate is 50 to 79%. • E: the mortality rate is 0 to 49.
Insecticidal Test on Small Brown Planthopper (Laodelphax striatellus)
The compounds represented by the general formula (1) of the present invention or salts thereof were separately dispersed in water and diluted to 50 ppm or 500 ppm. Rice plant seedlings (variety: Nihonbare) were dipped in the agrochemical dispersions for 30 seconds. After air-dried, each seedling was put into a separate glass test tube and inoculated with ten 3rd-instar larvae of small brown planthopper, and then the glass test tubes were capped with cotton plugs. At 8 days after the inoculation, the numbers of surviving larvae and dead larvae were counted, the corrected mortality rate was calculated according to the formula shown below, and the insecticidal efficacy was evaluated according to the criteria of Test Example 1.

[2] = system: Western flower thrips (Frankliniella occidentalis); assay: Insecticidal test on western flower thrips, larvae on kidney bean leaf pieces; format: in vivo; settings: 96 h, hatched larvae on kidney bean leaf pieces, counted 4 days after treatment, read-out: insecticidal efficacy (corrected mortality rate) against western flower thrips
Text: as §1
Insecticidal Test on Western flower thrips (Frankliniella occidentalis)
Female adults of western flower thrips were inoculated onto kidney bean leaf pieces, and allowed to lay eggs thereon for one day, then the female adults were removed. After 3 days, the hatched larvae on the leaf pieces were counted, and then the agrochemical dispersions diluted to 50 ppm or 500 ppm, each of which contained the compound described in Tables 1 to 5 as an active ingredient were applied. The number of larvae of the species surviving at 4 days after the treatment was counted, and the corrected mortality rate was calculated according to the formula shown below, and the insecticidal efficacy was evaluated according to the criteria of Test Example 1. This test was conducted in duplicate.

O=C(Nc1ccc(F)cc1)c1c([S-])c[n+](-c2ccc(C(F)(F)F)nc2)nc1O [2-1, 4-((4-fluorophenyl)carbamoyl)-3-hydroxy-1-(6-(trifluoromethyl)pyridin-3-yl)pyridazin-1-ium-5-thiolate]
100%: mortality at 500 ppm [1] | mortality at 50 ppm ([2]; 50 ppm) | mortality at 500 ppm ([2]; 500 ppm)
